Experimental data reported in patent US4228162A (priority 1979, dated 1980).

Assays:
[1] = Protocol: The samples were prepared using USP grade aspirin, which was dried at 110° before use. […] Spectrum b was taken after the sample (containing 10% water) was stored at 70° C. for 96 hours.
rats = assay: Acute Oral Toxicity--Rat; assay type: in vivo
Protocol: An approximate oral LD50 of dimethyl isorbide was determined.

rabbit eye = assay: Eye Irritation--Rabbit; assay type: in vivo
Protocol: […] was instilled into the conjunctival sac of the rabbit eye. Over a period of several years two different lots of DMI (designated here merely as A or B) were tested at different times and at various concentrations. […] The following classification of degree of irritancy, according to the terminology of […], was made for the various tests on the unwashed eye: The classification of DMI according to specifications provided in the Federal Hazardous Substances Act for the specified test and concentration are shown below: […]

[2] = test system: external auditory canal of rabbit ear; assay: Instillation into Rabbit Ear; assay type: in vivo; settings: four right rabbit ears, up to 5 days
Protocol: DMI was introduced onto the external auditory canal of each of four right rabbit ears. Likewise, four other right rabbit ears were instilled with 0.35 ml of 40% DMI in water.

human skin = assay: Human Patch Tests; assay type: in vivo
Description: Undiluted dimethyl ether of isosorbide has been tested under a closed patch of human subjects in accordance with the […] patch-test procedure originally designed by the dermatologist, B. Schwartz, M.D., and more recently adapted by R. B. Osbourn, M.D.

[3] = Preliminary toxicity of dimethyl isosorbide
Description: We use dimethyl isosorbide (DMI) as the vehicle for the liquid formulation of aspirin. […] When used internally, it is predicted that DMI will be metabolized to form isosorbide, a remedy for diuretic purposes. From the chemical structural point of view, it is seen that DMI is practically inert to aspirin degradation.

rabbit skin [4] = settings: in vivo
Protocol: (§1) Groups of four albino rabbits were given dosages of 1.00, 2.15, 4.64 and 10.0 ml per kg, respectively.

rabbit skin [5] = settings: in vivo; remark: listed apart in the source
rabbit skin [6] = assay: Acute Percutaneous Toxicity--Rabbit
Protocol: as §1

CO[C@H]1CO[C@H]2[C@@H]1OC[C@H]2OC [Dimethyl isosorbide, dimethyl isosorbide]
chemical interaction with aspirin / induction of aspirin degradation [1]: does not interact chemically with aspirin, not does it induce the degradation of aspirin
Signs of intoxication (rats): depression, lacrimation, labored respiration, tachcardia and ataxia
classification for acute oral toxicities (Hodge and Sterner) (rats): practically nontoxic
examination of the tissues of the animals that died (rats; 6.81 and 10.0 ml/kg): hyperemic lungs, slight irritation of the small intestine and congestion of kidneys and adrenals
mortality (rats; 6.81 and 10.0 ml/kg): all of the 10 rats given the two higher dosages died
Class. as Irritating Code of Federal Regulations (rabbit eye; 40%, lot A, test 1): Negative
No. of Eyes Positive / No. of Eyes Tested CFR (rabbit eye; 40%, lot A, test 1): 0/6
Average Score (out of potential 100) (rabbit eye; 40%, lot A, test 1, 3 eyes, washed 2 sec., 1 hour): 0.0
Average Score (out of potential 100) (rabbit eye; 40%, lot A, test 1, 3 eyes, washed 2 sec., 24 hours): 0.0
Average Score (out of potential 100) (rabbit eye; 40%, lot A, test 1, 3 eyes, washed 2 sec., 48 hours): 0.0
Average Score (out of potential 100) (rabbit eye; 40%, lot A, test 1, 3 eyes, washed 2 sec., 72 hours): 0.0
Average Score (out of potential 100) (rabbit eye; 40%, lot A, test 1, 3 eyes, washed 2 sec., 96 hours): 0.0
Average Score (out of potential 100) (rabbit eye; 40%, lot A, test 1, 3 eyes, washed 2 sec., 7 days): 0.0
Average Score (out of potential 100) (rabbit eye; 40%, lot A, test 1, 6 eyes, unwashed, 1 hour): 0.0
Average Score (out of potential 100) (rabbit eye; 40%, lot A, test 1, 6 eyes, unwashed, 24 hours): 0.0
Average Score (out of potential 100) (rabbit eye; 40%, lot A, test 1, 6 eyes, unwashed, 48 hours): 0.0
Average Score (out of potential 100) (rabbit eye; 40%, lot A, test 1, 6 eyes, unwashed, 72 hours): 0.0
Average Score (out of potential 100) (rabbit eye; 40%, lot A, test 1, 6 eyes, unwashed, 96 hours): 0.0
Average Score (out of potential 100) (rabbit eye; 40%, lot A, test 1, 6 eyes, unwashed, 7 days): 0.0
Classification (Kay and Calandra) (rabbit eye; 40%, lot A, test 1, unwashed eye): Nonirritating
Class. as Irritating Code of Federal Regulations (rabbit eye; 60%, lot A, test 1): Negative
No. of Eyes Positive / No. of Eyes Tested CFR (rabbit eye; 60%, lot A, test 1): 0/6
Average Score (out of potential 100) (rabbit eye; 60%, lot A, test 1, 3 eyes, washed 2 sec., 1 hour): 0.0
Average Score (out of potential 100) (rabbit eye; 60%, lot A, test 1, 3 eyes, washed 2 sec., 24 hours): 0.0
Average Score (out of potential 100) (rabbit eye; 60%, lot A, test 1, 3 eyes, washed 2 sec., 48 hours): 0.0
Average Score (out of potential 100) (rabbit eye; 60%, lot A, test 1, 3 eyes, washed 2 sec., 72 hours): 0.0
Average Score (out of potential 100) (rabbit eye; 60%, lot A, test 1, 3 eyes, washed 2 sec., 96 hours): 0.0
Average Score (out of potential 100) (rabbit eye; 60%, lot A, test 1, 3 eyes, washed 2 sec., 7 days): 0.0
Average Score (out of potential 100) (rabbit eye; 60%, lot A, test 1, 6 eyes, unwashed, 1 hour): 0.0
Average Score (out of potential 100) (rabbit eye; 60%, lot A, test 1, 6 eyes, unwashed, 24 hours): 0.0
Average Score (out of potential 100) (rabbit eye; 60%, lot A, test 1, 6 eyes, unwashed, 48 hours): 0.0
Average Score (out of potential 100) (rabbit eye; 60%, lot A, test 1, 6 eyes, unwashed, 72 hours): 0.0
Average Score (out of potential 100) (rabbit eye; 60%, lot A, test 1, 6 eyes, unwashed, 96 hours): 0.0
Average Score (out of potential 100) (rabbit eye; 60%, lot A, test 1, 6 eyes, unwashed, 7 days): 0.0
Classification (Kay and Calandra) (rabbit eye; 60%, lot A, test 1, unwashed eye): Nonirritating
Class. as Irritating Code of Federal Regulations (rabbit eye; 80%, lot A, test 1): Negative
No. of Eyes Positive / No. of Eyes Tested CFR (rabbit eye; 80%, lot A, test 1): 0/6
Average Score (out of potential 100) (rabbit eye; 80%, lot A, test 1, 3 eyes, washed 2 sec., 1 hour): 0.0
Average Score (out of potential 100) (rabbit eye; 80%, lot A, test 1, 3 eyes, washed 2 sec., 24 hours): 0.0
Average Score (out of potential 100) (rabbit eye; 80%, lot A, test 1, 3 eyes, washed 2 sec., 48 hours): 0.0
Average Score (out of potential 100) (rabbit eye; 80%, lot A, test 1, 3 eyes, washed 2 sec., 72 hours): 0.0
Average Score (out of potential 100) (rabbit eye; 80%, lot A, test 1, 3 eyes, washed 2 sec., 96 hours): 0.0
Average Score (out of potential 100) (rabbit eye; 80%, lot A, test 1, 3 eyes, washed 2 sec., 7 days): 0.0
Average Score (out of potential 100) (rabbit eye; 80%, lot A, test 1, 6 eyes, unwashed, 1 hour): 0.0
Average Score (out of potential 100) (rabbit eye; 80%, lot A, test 1, 6 eyes, unwashed, 24 hours): 0.0
Average Score (out of potential 100) (rabbit eye; 80%, lot A, test 1, 6 eyes, unwashed, 48 hours): 0.0
Average Score (out of potential 100) (rabbit eye; 80%, lot A, test 1, 6 eyes, unwashed, 72 hours): 0.0
Average Score (out of potential 100) (rabbit eye; 80%, lot A, test 1, 6 eyes, unwashed, 96 hours): 0.0
Average Score (out of potential 100) (rabbit eye; 80%, lot A, test 1, 6 eyes, unwashed, 7 days): 0.0
Classification (Kay and Calandra) (rabbit eye; 80%, lot A, test 1, unwashed eye): Nonirritating
Class. as Irritating Code of Federal Regulations (rabbit eye; 100%, lot A, test 1): Positive
No. of Eyes Positive / No. of Eyes Tested CFR (rabbit eye; 100%, lot A, test 1): 4/6
Average Score (out of potential 100) (rabbit eye; 100%, lot A, test 1, 3 eyes, washed 2 sec., 1 hour): 0.0
Average Score (out of potential 100) (rabbit eye; 100%, lot A, test 1, 3 eyes, washed 2 sec., 24 hours): 0.0
Average Score (out of potential 100) (rabbit eye; 100%, lot A, test 1, 3 eyes, washed 2 sec., 48 hours): 0.0
Average Score (out of potential 100) (rabbit eye; 100%, lot A, test 1, 3 eyes, washed 2 sec., 72 hours): 0.0
Average Score (out of potential 100) (rabbit eye; 100%, lot A, test 1, 3 eyes, washed 2 sec., 96 hours): 0.0
Average Score (out of potential 100) (rabbit eye; 100%, lot A, test 1, 3 eyes, washed 2 sec., 7 days): 0.0
Average Score (out of potential 100) (rabbit eye; 100%, lot A, test 1, 6 eyes, unwashed, 1 hour): 0.0
Average Score (out of potential 100) (rabbit eye; 100%, lot A, test 1, 6 eyes, unwashed, 24 hours): 15.0
Average Score (out of potential 100) (rabbit eye; 100%, lot A, test 1, 6 eyes, unwashed, 48 hours): 10.3
Average Score (out of potential 100) (rabbit eye; 100%, lot A, test 1, 6 eyes, unwashed, 72 hours): 10.0
Average Score (out of potential 100) (rabbit eye; 100%, lot A, test 1, 6 eyes, unwashed, 96 hours): 10.0
Average Score (out of potential 100) (rabbit eye; 100%, lot A, test 1, 6 eyes, unwashed, 7 days): 10.0
score of one eye (zero) (rabbit eye; 100%, lot A, test 1, unwashed): zero
Classification (Kay and Calandra) (rabbit eye; 100%, lot A, test 1, unwashed eye): Cannot be classified
maximum score of other eyes (rabbit eye; 100%, lot A, test 1, unwashed, no other eye greater at any reading): ≤ 14
score of one eye (rabbit eye; 100%, lot A, test 1, unwashed, consistent score): 60-64
Class. as Irritating Code of Federal Regulations (rabbit eye; 100%, lot A, test 2): Negative
No. of Eyes Positive / No. of Eyes Tested CFR (rabbit eye; 100%, lot A, test 2): 0/6
Average Score (out of potential 100) (rabbit eye; 100%, lot A, test 2, 3 eyes, washed 2 sec., 1 hour): 0.0
Average Score (out of potential 100) (rabbit eye; 100%, lot A, test 2, 3 eyes, washed 2 sec., 24 hours): 0.0
Average Score (out of potential 100) (rabbit eye; 100%, lot A, test 2, 3 eyes, washed 2 sec., 48 hours): 0.0
Average Score (out of potential 100) (rabbit eye; 100%, lot A, test 2, 3 eyes, washed 2 sec., 72 hours): 0.0
Average Score (out of potential 100) (rabbit eye; 100%, lot A, test 2, 3 eyes, washed 2 sec., 96 hours): 0.0
Average Score (out of potential 100) (rabbit eye; 100%, lot A, test 2, 3 eyes, washed 2 sec., 7 days): 0.0
Average Score (out of potential 100) (rabbit eye; 100%, lot A, test 2, 6 eyes, unwashed, 1 hour): 0.0
Average Score (out of potential 100) (rabbit eye; 100%, lot A, test 2, 6 eyes, unwashed, 24 hours): 0.0
Average Score (out of potential 100) (rabbit eye; 100%, lot A, test 2, 6 eyes, unwashed, 48 hours): 0.0
Average Score (out of potential 100) (rabbit eye; 100%, lot A, test 2, 6 eyes, unwashed, 72 hours): 0.0
Average Score (out of potential 100) (rabbit eye; 100%, lot A, test 2, 6 eyes, unwashed, 96 hours): 0.0
Average Score (out of potential 100) (rabbit eye; 100%, lot A, test 2, 6 eyes, unwashed, 7 days): 0.0
Classification (Kay and Calandra) (rabbit eye; 100%, lot A, test 2, unwashed eye): Nonirritating
Class. as Irritating Code of Federal Regulations (rabbit eye; 100%, lot B, test 1): Negative
No. of Eyes Positive / No. of Eyes Tested CFR (rabbit eye; 100%, lot B, test 1): 0/6
Average Score (out of potential 100) (rabbit eye; 100%, lot B, test 1, 3 eyes, washed 2 sec., 1 hour): 2.7
Average Score (out of potential 100) (rabbit eye; 100%, lot B, test 1, 3 eyes, washed 2 sec., 24 hours): 18.0
Average Score (out of potential 100) (rabbit eye; 100%, lot B, test 1, 3 eyes, washed 2 sec., 48 hours): 17.3
Average Score (out of potential 100) (rabbit eye; 100%, lot B, test 1, 3 eyes, washed 2 sec., 72 hours): 9.4
Average Score (out of potential 100) (rabbit eye; 100%, lot B, test 1, 3 eyes, washed 2 sec., 96 hours): 8.7
Average Score (out of potential 100) (rabbit eye; 100%, lot B, test 1, 3 eyes, washed 2 sec., 7 days): 0.0
Average Score (out of potential 100) (rabbit eye; 100%, lot B, test 1, 6 eyes, unwashed, 1 hour): 3.7
Average Score (out of potential 100) (rabbit eye; 100%, lot B, test 1, 6 eyes, unwashed, 24 hours): 11.3
Average Score (out of potential 100) (rabbit eye; 100%, lot B, test 1, 6 eyes, unwashed, 48 hours): 5.6
Average Score (out of potential 100) (rabbit eye; 100%, lot B, test 1, 6 eyes, unwashed, 72 hours): 5.0
Average Score (out of potential 100) (rabbit eye; 100%, lot B, test 1, 6 eyes, unwashed, 96 hours): 5.0
Average Score (out of potential 100) (rabbit eye; 100%, lot B, test 1, 6 eyes, unwashed, 7 days): 4.6
score of one other eye (zero) (rabbit eye; 100%, lot B, test 1, unwashed): zero
Classification (Kay and Calandra) (rabbit eye; 100%, lot B, test 1, unwashed eye): Mildly irritating
score of one eye (rabbit eye; 100%, lot B, test 1, unwashed, consistently): 28-30
variability in response of individual rabbit eyes (rabbit eye; undiluted): considerable variability in the response of individual rabbit eyes
irritation to the integument of the external auditory canal ([2]; 0.35 ml of 40% DMI in water): No irritation to the integument of the external auditory canal was observed
irritation to the integument of the external auditory canal ([2]; DMI): No irritation to the integument of the external auditory canal was observed
No. of Reactors/No. of Subj. Tested, 1st Appl. (human skin; 100%, closed patch): 0/200
No. of Reactors/No. of Subj. Tested, Both Appl. (human skin; 100%, closed patch): 2/200
grade of reaction of the two reactors (human skin; second application only, two subjects): questionable (1) reaction
retest of the two reactors (human skin; semiclosed patch, another site, 48 hours later): both were negative 48 hours
primary irritant / skin sensitizer conclusion (human skin; undiluted, human skin): neither a primary irritant to the human skin nor a skin sensitizer
toxicity (preliminary studies) [3]: practically nontoxic
erythema (rabbit skin [4]): transitory mild to moderate erythema
gross pathological findings (rabbit skin [4]): No gross pathological findings
individual score of single positive reading (rabbit skin [5]): 1.0
score (edema or erythema) (rabbit skin [5]): No score (edema or erythema) was obtained on any of the rabbits
survival (rabbit skin [6]; undiluted, 1.00, 2.15, 4.64 and 10.0 ml per kg): All rabbits survived
acute percutaneous toxicity (rabbit skin [6]; undiluted, rabbit skin under rubber dental dam, 24 hours): greater than 10 ml per kg of body weight
